This is an account of results in a melting point compilation (Tetko et al.; mined from patent text by program, amines drawn as free bases though some values may be those of a salt).

Molecules are shown by their SMILES. Bounds are passed on as bounds.

As for `NC(=O)C(=O)NCCC(F)=C(F)F`, the melting point lay in the range of 190 to 220 °C.
`Cc1ccc(C(=O)n2c(C)c(C(C)C(=O)O)c3cc4c(cc32)OCO4)cc1` (stereo unspecified) displayed a melting point of 172 to 175 °C.
As to `O=C(NC(P(=O)(O)O)P(=O)(O)O)c1cc2ccccc2s1`, the melting point lay within 234 to 238 °C.
The compound `Cc1ccc(NC(=O)N[C@]2(C3CCCCC3)N=Cc3ccccc3N(C)C2=O)cc1Nc1nnn[nH]1` came in with a melting point of 190 to 193 °C.
Next, `CC1(C)NCC(=O)N1CC(N)=O`: 144 to 146 °C; `COc1c(NC(=O)c2cc3cccc(Oc4ccnc(NCCN5CCOCC5)n4)c3n2C)cc(C(C)(C)C)cc1NS(C)(=O)=O`: 201 to 202 °C; `CN(C)C=Nc1c(Cl)cc(NCc2ccc(N(C)C)cc2Br)cc1Cl`: 135 to 137 °C.
In turn, `CC(CO)C1CCC2C3CCC4=C(N)C(=O)CCC4(C)C3CCC12C` (stereo unspecified) displayed a melting point of 180 to 185 °C.
`CCOC(Cc1ccc(OCCN2COc3ccccc3C2=O)cc1)C(=O)O` (stereo unspecified): the melting point is 103 to 105 °C.
`COC(=O)C(=O)c1ccc(OCCOc2ccc3ccncc3c2)cc1` displayed a melting point of 144 to 145 °C.
On to `CON=C(c1cc(C)no1)c1ccccc1CON=C(C)c1ccc(Cl)c(Cl)c1`, for which the melting point was 84 to 85 °C.
Turning to `CN(C)c1ccc(C(=O)N2CCC(c3[nH]nc4c3C(=O)c3c(NC(=O)NN5CCOCC5)cccc3-4)CC2)cc1`, the melting point was in the range of 189 to 191 °C.
Next, `Oc1ccc(CC(=S)Nc2ncc(-c3ccc(O)cc3)nc2Cc2ccccc2)cc1`: 101 to 103 °C.
The compound `COc1ccc(C2CCc3c(OC(C)=O)cc(OC(C)=O)cc3O2)cc1OC(C)=O` (stereo unspecified) displayed a melting point of 106 to 107 °C.
Compound `N#Cc1cc(-c2ccc(Cl)cc2)cnc1Cl` returned a melting point of 185 to 187 °C.
The compound `CN1CCN(C2Cc3ccccc3Sc3cc(F)c(Cl)cc32)CC1` (stereo unspecified) came in with a melting point of 105 to 107 °C.
For the compound `CN1C(=O)[C@@H](N)[C@@H]1c1ccccc1` (relative stereo), the melting point is 51.5 °C.
Take `C[C@H]1C(=O)C2(CC2)C(=O)N1c1ccc(C#N)c(Cl)c1`: the melting point is 169 to 172 °C.
In turn, `C=CCn1c(=O)[nH]c(=O)c2[nH]c(C34CC5CC(CC3C5)C4)nc21` returned a melting point above 270 °C.
`CC(C)(C)[Si](C)(C)OCCCC(=O)c1cc(-c2ccc(S(N)(=O)=O)cc2)n(C2CCCCC2)n1`: the melting point was 151 to 153 °C.
The value for `CCOC(=O)C1C(=O)c2cc(F)ccc2N=C1c1ccccc1` (stereo unspecified) was 277 to 279 °C; that for `COCCOc1ccc([N+](=O)[O-])cc1I` was 35 to 36 °C; that for `COC(=O)CN1CC([N+](=O)[O-])=C(Cc2ccc(C(C)(C)C)cc2)C=C1C` was 135 °C.
The compound `Cc1ccc(C2C(=O)NC(=O)NC2=O)cc1` gave a melting point of 271 °C.
`COC1CC(N)(C(=O)O)C2C(C(=O)O)C12` (stereo unspecified) displayed a melting point above 275 °C.
With `CC(=O)Nc1c(C(=O)c2cccs2)[nH]c2cc(Cl)ccc12`, the melting point was in the range of 228 to 231 °C.
The value for `Brc1cccc2[nH]c(-c3ccccc3)c(CCN3CCCCC3)c12` was above 230 °C; that for `CS(=O)(=O)c1ccc(-n2nc(-c3ccc(O)cc3O)c3ccc(O)cc32)cc1` was 94 to 96 °C; that for `O=C(CC1CC1)N[C@H]1CC[C@H](CCN2CCN(c3nccc4c3CCO4)CC2)CC1` was 193 °C.
Regarding `COc1cc2c(c(OC)c1OC)C(=O)O[C@H]2CO`, the melting point was 178 to 180 °C.
The compound `CC(C)(C)c1cc(C(=O)Nc2cccc(SCc3cncc4ccccc34)c2)ccc1O` showed a melting point of 205 to 210 °C.
Next, `N#Cc1ccc(N2CCC(c3ccccc3)CC2)cc1`: 167 to 169 °C; `CC1CCN(Cc2cccc(OCCCNS(=O)(=O)CCNc3ccc(Cl)c(Cl)c3)c2)CC1`: 130 to 135 °C; `O=C(c1ccc(-n2ccnc2)cc1)N1CCN(S(=O)(=O)c2cc3cc(Cl)ccc3[nH]2)CC1`: 155 to 165 °C.
`Cc1nc2c(O[C@H]3c4ccccc4C[C@@H]3O)cccn2c1CO` registered a melting point of 174 to 175 °C.
`CCn1ncc2c3noc(-c4cccc(F)c4)c3cnc21` showed a melting point of 182 to 184 °C.
Compound `O=S(=O)(O)c1ccc(OC2=C(Oc3ccc(S(=O)(=O)O)cc3)C(F)(F)C(F)(F)C2(F)F)cc1` came in with a melting point of 251 to 255 °C.
Next, `Fc1ccc(OCCCN2CCN(c3ncc4ccccc4n3)CC2)cc1`: 126 to 128 °C.
On to `O=S(=O)(NN=C(Cl)c1ccc(F)cc1Cl)c1ccccc1`, for which the melting point was in the range of 133 to 135 °C.
The value for `CC1(C)Oc2ccc([N+](=O)[O-])cc2C(n2ccccc2=O)C1(O)CNC(=O)C(F)(F)F` (stereo unspecified) was 158 °C; that for `CC(C)(C)OC(=O)CN1CCN2C(=O)N(c3cc(Cl)cc(Cl)c3)C(=O)C2(Cc2ccc(Br)cc2)C1` (stereo unspecified) was 74.7 °C.
Compound `Fc1ccc(-c2[nH]cc(C3=CC4CCCCN4CC3)c2-c2ccncc2)cc1` (stereo unspecified) gave a melting point of 223 to 224 °C.
In turn, `COc1cccc(C2=C(CC(C)=O)C(=O)NCCC2)c1` displayed a melting point of 140 to 142 °C.
Compound `COC(=O)C=Cc1cc(Cl)ccc1C(=O)OC` gave a melting point of 87 to 89 °C.
As to `O=C(Cn1c(-c2ccc(Br)cc2)nc2cccnc21)NCCN1CCCCC1`, the melting point was 178 to 179 °C.
The compound `COc1ccc(-n2nc(CO)c3c2CCC3)cc1` showed a melting point of 88 to 89 °C.
Turning to `CNC(=O)CC1CN=C(c2cc3cc(Oc4ccc(S(C)(=O)=O)nc4)cc(OC)c3[nH]2)S1` (stereo unspecified), the melting point is 201 to 202 °C.
Compound `CC1CCN(c2ccc([N+](=O)[O-])cc2C(=O)c2ccc(Br)cc2)CC1` came in with a melting point of 142 °C.
With `CCSc1nc2c(C)sc(C(=O)O)c2n1Cc1ccc(-c2ccccc2-c2n[nH]c(=O)n2C)cc1`, the melting point lay within 181 to 182 °C.
The value for `Cc1c(CNCC(C)(C)C)n(C)c2ccc(NC(=O)c3ccc(OCC4CC4)cc3)cc12` was 169 to 170 °C.
With `CCCn1c(=O)c2c(nc(CO)n2C)n(CCC)c1=O`, the melting point fell in the range of 111 to 112 °C.
Turning to `[O-][N+](=Cc1ccccn1)c1cccc(CO)c1`, the melting point was 117 to 119 °C.
As for `CC(O)c1ncnc(N2CCN(S(=O)(=O)N(C)C)CC2)n1` (stereo unspecified), the melting point lay within 124 to 125 °C.
`O=S1(=O)N=CN(C2CC2)c2cc(Cl)c(F)cc21`: the melting point lay within 205 to 206 °C.
`Cc1cc(-c2cccs2)nc(Nc2ccc(C(C)C)cc2Br)n1` returned a melting point of 98 to 101 °C.
Regarding `CC(C)(Cn1c(N)nc2c(N)nc3ccccc3c21)NS(C)(=O)=O`, the melting point is above 230 °C.
Next, `CC1(CC(CO)CO)SCCS1`: 72 to 73 °C; `CCCOC(=O)c1ccc2c(c1)S[C@@H](c1ccc(OC)cc1)[C@@H](OC(C)=O)C(=O)N2CCN(C)C` (racemic): 114 to 119 °C; `OCc1cc(OCc2ccccc2)nn1C1CCCCC1`: 195 to 196 °C.
On to `COC1Cn2ccc(=O)c(OCc3ccccc3)c2C(c2ccccc2)O1` (stereo unspecified), for which the melting point lay within 202 to 204 °C.
`C1=C(N2c3ccccc3Sc3ccccc32)N(C2=NCCC2)CC1` showed a melting point of 199 to 201 °C.
Next, `Cc1cc(SCc2ccnc3[nH]c(-c4ccc(C(F)(F)F)cc4)nc23)ccc1OCC(=O)O`: 239 to 241 °C.
In the case of `CCCCn1c(=O)c2ncn(C)c2c2cccnc21`, the melting point lay in the range of 198 to 202 °C.
With `Cc1cc(=O)n2c3c(cc(C(O)(C(F)(F)Cl)C(F)(F)Cl)cc13)CC2`, the melting point is 256 to 257 °C.
In the case of `CCOC(=O)C(O)=CC=C(C#N)c1ccccc1`, the melting point was 189 °C.
As for `CCOC(=O)c1cn(CC)c2nc(N3CCNCC3)c(F)cc2c1=O`, the melting point lay within 150 to 151 °C.
The compound `C=C(Cl)CN1C(=O)c2ccccc2Oc2ncccc21` registered a melting point of 106 to 108 °C.
For `CC1(C)C(=O)Nc2ccc(-c3cccc([N+](=O)[O-])c3)cc21`, the melting point is 234 to 235 °C.
Turning to `CC(C)(Oc1ccc(C(=O)c2ccc(Cl)cc2)cc1)C(=O)NCC(=O)O`, the melting point lay in the range of 144 to 146 °C.
`CSCC1Cc2cc(C)c3[nH]c(=O)ccc3c2O1` (stereo unspecified) registered a melting point of 203 to 206 °C.
`O=c1c(Cc2cccnc2)cn2c3cc(F)ccc3c3cc(OCCCO)cc1c32` came in with a melting point of 204 to 209 °C.
As for `CCOC(=O)c1sc(Oc2cccnc2)c2c1CCc1cnn(C)c1-2`, the melting point was in the range of 247 to 248 °C.
For `O=c1oc(-c2ccccc2Cl)cc(O)c1SCc1ccccc1`, the melting point is 99 to 101 °C.
With `CC(CN1CCCC1)N1c2ccccc2Sc2ccc(C(=O)NCC3CCC3)cc21` (racemic), the melting point came out at 133 °C.
The compound `COc1cc(Cc2cnc(N)nc2N)cc(Br)c1OC` showed a melting point of 204 to 205 °C.
For the compound `COc1cccc(Nc2ncc3cc(-c4c(Cl)cccc4Cl)c(=O)n(C)c3n2)c1`, the melting point was in the range of 203 to 204 °C.
In turn, `CCSc1cc(C)nc(SCC)c1NC(=O)CN1CCN(CCSc2nc3c(C)c(Cl)cc(C(C)C)c3o2)CC1` came in with a melting point of 120 to 122 °C.
`CCC(C(=O)OC)(C(=O)OC)C(Cc1cc(Cl)ccc1[N+](=O)[O-])c1ccc(OC)cc1` (stereo unspecified): the melting point was in the range of 95.5 to 97 °C.
In the case of `O=S(CCCCCCOc1ccc(C2=C(c3ccccc3)CCCc3cc(O)ccc32)cc1)Cc1ccccn1` (stereo unspecified), the melting point stood at 80 °C.
Take `COC(=O)Cc1ccc(OCCNC(=O)C2Cc3ccccc3N2S(=O)(=O)c2ccc(-c3cc(C)ccc3C)cc2)cc1` (stereo unspecified): the melting point is 56 to 59 °C.
As to `O=C(OC(=O)N(c1ccccc1)c1ccccc1)N(c1ccccc1)c1ccccc1`, the melting point lay in the range of 159 to 162 °C.
The value for `Cc1cc(CN(Cc2cccs2)c2sc(-c3ccc(C(F)(F)F)cc3)nc2C)ccc1OC(C)(C)C(=O)O` was 100 °C; that for `O=C(O)[C@H](Cc1ccc([N+](=O)[O-])cc1)NC1=CC(=O)C12CCCCC2` was 120 °C; that for `CCCCNc1cc(CNC(C)=O)cc(S(N)(=O)=O)c1Oc1ccccc1` was 190 to 191 °C.
`Cc1nc(-c2cccnc2)sc1-c1ccnc(Nc2cccc(CN)c2)n1` showed a melting point of 211 to 213 °C.
Next, `CC(Cl)(Cl)CC(O)(Cn1cncn1)c1ccc(Cl)cc1` (stereo unspecified): 106 °C.

As a reminder, the melting point is the temperature, or range, at which the solid turns liquid.
